# Assay results from patent US6245336A, “Prevention and treatment of acetaminophen toxicity with grape seed proanthocyanidin extract” (Dry Creek Nutrition, Inc., priority 1999, dated 2001).
# Experiments:
# liver sections = liver sections at 400× magnification (histology); assay type: in vivo, mice; conditions: acetaminophen 500 mg/kg without GSPE pre-treatment; FIG. 11
# Procedure: (§1) Trials of the efficacy of GSPE in preventing acetaminophen toxicity were performed using mice as test subjects. The GSPE used in the subject trials is a standardized water-ethanol extract from red grape seeds, identified as IH636 by InterHealth Nutraceuticals, Inc., of Concord, Calif. The dosage used in the subject trials was 100 mg of GSPE per kg of body weight, daily for three or seven days. This dosage is equivalent to about […] of body weight, based on the following formula from the CRC Handbook of Toxicology, Delanko M. J. and Hollinger M. A. eds., CRC Press 1995, p. 654:
# FIGS. 9 through 12 show comparison liver sections from test subjects at 400× magnification. FIGS. 9 and 10 show normal liver sections from test subjects not given acetaminophen.
# humans = conditions: normal healthy adults; cited from earlier work
# [1] = tested on: serum alanine aminotransferase activity; test: serum alanine aminotransferase (ALT) activity in acetaminophen-treated mice; assay type: in vivo; conditions: no pre-exposure to GSPE, 24 h
# Procedure: as §1
# (§2) GSPE was dissolved in phosphate-buffered saline solution and the solution was administered orally. Acetaminophen then was administered intraperitoneally, as a single toxic dose, in dosage of either 400 or 500 mg/kg. These dosage levels are equivalent to approximately 10 grams for normal healthy adults and 4 to 6 grams for alcoholics, levels that have been found toxic for humans. Twenty-four hours after administration of the acetaminophen, blood samples were removed from the subjects and analyzed for serum alanine aminotransferase activity, a well-known biomarker of liver toxicity. Liver samples also were taken and analyzed them for apoptotic and necrotic cell death DNA damage and gene expression.
# liver tissue = test: DNA fragmentation assay of liver tissue from acetaminophen-treated mice; assay type: in vivo; conditions: without pre-exposure to GSPE
# Procedure: as §1, §2
# mice = test: number of deaths of mice treated with acetaminophen and GSPE; assay type: in vivo; conditions: without pre-exposure to GSPE
# Procedure: as §1, §2
smiles,measurement,setting,value
"CC(=O)Nc1ccc(O)cc1 [acetaminophen, N-acetyl-p-amino phenol]",liver section appearance indicating toxicity,liver sections,"whitening and browning of cells, indicating toxicity"
same,dosage level found toxic for humans,humans,approximately 10 grams
same,serum ALT,[1]; acetaminophen 400 mg/kg i.p.,"about 22,000 U/L"
same,serum ALT,[1]; acetaminophen 500 mg/kg i.p.,"about 30,000 U/L"
same,DNA fragmentation,liver tissue; acetaminophen 400 mg/kg,about 3.5 times that of the control group
same,DNA fragmentation,liver tissue; acetaminophen 500 mg/kg,about 4.8 times that of the control group
same,number of deaths,mice; acetaminophen 400 mg/kg,2
same,number of deaths,mice; acetaminophen 500 mg/kg,4
